The source of these data is patent US11352604B2, “Method of making cardiomyocytes from human pluripotent cells” (Wisconsin Alumni Research Foundation, priority 2016, dated 2022).

For this assay, the system named is cTnT isoforms. Nature of the assay: Top-down mass spectrometry of cTnT isoforms (adult to fetal AUC ratio). It counts as cell-based, human. Here is the method: Freshly isolated CMs from the H9-cTnT-GFP (FIG. 1) or 19-9-11 (FIG. 2) hPSC cell lines were washed with Ca^2+-free DPBS and centrifuged at 1,100 g for 5 minutes (min) and the wash solvent was removed. The cells were first homogenized in 50 μl HEPES solution (25 mM HEPES, pH 7.4, 2.5 mM EDTA, 100 mM NaF, 1 mM DTT, 10 mM L-methionine, 1 mM PMSF, 1 mM Na3VO4, protease inhibitor (Abcam) and phosphatase inhibitors). The homogenates were centrifuged at 17,000 g for 20 min and the HEPES extract containing predominately cytosolic proteins was collected. The remaining pellets were homogenized in 40 μl trifluoroacetic acid (TFA) solution (1% TFA, 5 mM tris(2-carboxyethyl)phosphine, 5 mM L-methionine) and centrifuged at 17,000 g for 20 min. The TFA extract containing predominantly the sarcomeric proteins was collected. Bradford protein assays were performed to determine the protein concentration. The sarcomeric protein-enriched extracts were diluted to 100 ng/μl for Liquid chromatography (LC)-MS analysis.
500 ng of each sarcomeric protein-enriched extract was injected to a home-packed reverse phase chromatography (RPC) column (PLRP-S, 10 μm particle size, 1000 A pore size, 500 μm inner diameter, 25 cm long), and the proteins were separated with a gradient of 5-95% mobile phase B (0.1% formic acid in 50:50 acetonitrile:ethanol) (mobile phase A: 0.1% formic acid in H2O) at a constant flowrate of 12 μl/min. The eluting proteins were analyzed by a high-resolution quadrupole-time of flight (q-TOF) mass spectrometer (Impact II, Bruker Daltonics) via electrospray ionization. The mass spectra were collected at a scan rate of 0.5 Hz for all samples being analyzed. Analyses of top-down mass spectra were performed using the vender-specific software DataAnalysis 3.2 (Bruker Daltonics).
Quantification of the sarcomeric protein isoforms was performed as previously described. […] The area under curve (AUC) of the EIC of a specific protein isoform represents the abundance of the selected protein isoform. […] Relative quantification of protein isoform expression was measured by the ratio of the AUCs.

As for polyinosinic-polycytidylic acid [pI:C], the “ratio of adult to fetal cTnT isoforms” value (day 30 cardiomyocytes) is “increased the ratio of adult to fetal isoforms”. Moreover, the “adult to fetal cTnT isoform ratio and relative difference treated vs untreated” value (prolonged culture to day 122) is recorded as “increased dramatically”.
